Test systems include HT29 colon; HS 578T breast; M14 melanoma; MOLT-4 leukemia; UACC-62 melanoma; HCC-2998 colon; PC-3 prostate; HCT-15 colon; SK-MEL-28 melanoma; RXF 393 renal.
What all share (test): NCI tumour cell line growth inhibition, 48 h

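The compound was tested at five concentrations on cells cultured in 96-well plates, with a 48-hour exposure period. GI50 marks 50% less growth. TGI denotes the concentration required for complete inhibition of growth.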

`COc1ccc2c(c1)CCC/C2=N\NS(=O)(=O)c1c(C)cc(C)cc1C`: the TGI in the assay on HT29 colon was 43.5 µM; in the assay with HS 578T breast it was 61.8 µM; in the assay on M14 melanoma it was above 100 µM; in the assay on MOLT-4 leukemia it was 66.1 µM; in the assay with UACC-62 melanoma, 42.6 µM; in the assay on HCC-2998 colon it was above 100 µM. The TGI in the assay with PC-3 prostate was above 100 µM; in the assay on HCT-15 colon it was 95.3 µM; in the assay on SK-MEL-28 melanoma, above 100 µM.
Regarding `COc1ccccc1NC(=S)N/N=C/c1cccc(C)n1`, the TGI in the assay with HT29 colon was above 100 µM; in the assay with HS 578T breast it was above 100 µM; in the assay with M14 melanoma, 9.43 µM; with MOLT-4 leukemia, above 100 µM; in the assay with UACC-62 melanoma it was 15.1 µM; with HCC-2998 colon, above 100 µM. The TGI with PC-3 prostate, with HCT-15 colon and in the assay with SK-MEL-28 melanoma was above 100 µM in each case.
With `CC(C)(C)C1=C(Br)C(OC(=O)C(F)(F)F)(C(C)(C)C)OP1(=O)c1ccccc1` (stereo not given), the TGI in the assay with HT29 colon is above 100 µM; in the assay on HS 578T breast, 65.5 µM; in the assay on M14 melanoma it was above 100 µM; in the assay on UACC-62 melanoma it was 95.4 µM; in the assay on HCC-2998 colon, above 100 µM; with PC-3 prostate it was 93.5 µM. The TGI in the assay with HCT-15 colon and in the assay on SK-MEL-28 melanoma was above 100 µM each time.
As to `C(=C/c1nc2ccccc2o1)/c1ccc2c(c1)OCO2`, the TGI is above 81.8 µM with HT29 colon; 41.9 µM with RXF 393 renal; above 100 µM in the assay with MOLT-4 leukemia; above 45.5 µM in the assay with UACC-62 melanoma; above 70.8 µM with HCC-2998 colon; above 100 µM in the assay on HCT-15 colon. Also, the TGI in the assay with SK-MEL-28 melanoma was above 100 µM.
Take `N#Cc1nc(-c2cccc(-c3nc(C#N)c(N)o3)n2)oc1N`: the TGI in the assay on HT29 colon, in the assay on HS 578T breast, in the assay with M14 melanoma, in the assay with MOLT-4 leukemia, in the assay on UACC-62 melanoma and with HCC-2998 colon was above 100 µM each time. The TGI with PC-3 prostate, with HCT-15 colon and in the assay with SK-MEL-28 melanoma was above 100 µM in each case.
Consider `NN/C(=N\S(=O)(=O)c1ccc(S(=O)(=O)c2ccccc2)s1)Nc1ccc(Cl)cc1`, for which the TGI with HT29 colon was 65.4 µM; with M14 melanoma it was 40.1 µM; in the assay with RXF 393 renal, 47.6 µM; in the assay with MOLT-4 leukemia it was 41.2 µM; with UACC-62 melanoma it was 33.5 µM; in the assay with PC-3 prostate it was above 100 µM. In addition, the TGI with HCT-15 colon and in the assay on SK-MEL-28 melanoma was above 100 µM in each case.
Take `CCOC(=O)/C=C/[C@@H](CC)O[Si](C(C)C)(C(C)C)C(C)C`: the TGI in the assay on HT29 colon, with HS 578T breast, in the assay with MOLT-4 leukemia, in the assay with UACC-62 melanoma, with HCC-2998 colon and in the assay with PC-3 prostate was above 100 µM throughout. The TGI in the assay on HCT-15 colon is above 100 µM.
For the compound `CC1OC(=O)C(C(C)C)NC(=O)C(C(C)C)OC(=O)C(C(C)C)NC(=O)C(C)OC(=O)C(C(C)C)NC(=O)C(C(C)C)OC(=O)C(C(C)C)NC(=O)C(C)OC(=O)C(C(C)C)NC(=O)C(C(C)C)OC(=O)C(C(C)C)NC1=O` (stereo not given), the GI50 is below 0.0001 µM in the assay on HT29 colon; below 0.0001 µM in the assay with MOLT-4 leukemia; below 0.0001 µM in the assay on UACC-62 melanoma; below 0.0001 µM with HCC-2998 colon; 0.000358 µM in the assay with HCT-15 colon; below 0.0001 µM with SK-MEL-28 melanoma. For the same compound, the TGI in the assay with HT29 colon was 3.4 µM; in the assay on RXF 393 renal, 0.328 µM; in the assay on MOLT-4 leukemia it was 0.00858 µM; in the assay on UACC-62 melanoma, 5.58 µM; with HCC-2998 colon, 1.29 µM; in the assay with HCT-15 colon it was 4.53 µM. Further, the TGI with SK-MEL-28 melanoma came out at 5.63 µM.
As to `COC(=O)c1ccc(NCC2=C(Br)C(=O)C=CC2=O)cc1Cl`, the TGI was 32.6 µM in the assay on HT29 colon; above 100 µM in the assay with HS 578T breast; 32.1 µM in the assay on M14 melanoma; above 100 µM with MOLT-4 leukemia; 33.8 µM with UACC-62 melanoma; above 100 µM with HCC-2998 colon. The TGI in the assay on PC-3 prostate is 43.8 µM; with HCT-15 colon, 29.2 µM; in the assay on SK-MEL-28 melanoma, 33.6 µM.
In the case of `CCN(CC)CCO[Si](OCCN(CC)CC)(OCCN(CC)CC)OCCN(CC)CC`, the TGI in the assay on HT29 colon, with M14 melanoma, in the assay with RXF 393 renal, with UACC-62 melanoma, in the assay on HCC-2998 colon and in the assay with HCT-15 colon was above 100 µM throughout. In the assay on SK-MEL-28 melanoma, the TGI is above 100 µM.
For the compound `CCn1c2ccccc2c2cc(Nc3cc(C)[nH]c(=O)n3)ccc21`, the TGI in the assay with HT29 colon, in the assay on M14 melanoma, in the assay on RXF 393 renal, in the assay with UACC-62 melanoma, in the assay with HCC-2998 colon and with PC-3 prostate was above 100 µM in each case. Also, the TGI in the assay on HCT-15 colon and in the assay on SK-MEL-28 melanoma was above 100 µM throughout.
For `S=c1nc[nH]c2c1ncn2C1CCCO1` (stereo not given), the TGI with HT29 colon, with M14 melanoma, in the assay on RXF 393 renal, in the assay with MOLT-4 leukemia, in the assay with UACC-62 melanoma and in the assay on HCC-2998 colon was above 100 µM in each case. The TGI in the assay with HCT-15 colon and in the assay on SK-MEL-28 melanoma was above 100 µM throughout.
Turning to `Cc1ccc(S(=O)(=O)Nn2c(O)c(C#N)c(-c3ccc([N+](=O)[O-])cc3)c(C#N)c2=O)cc1`, the TGI with HT29 colon, with M14 melanoma, with RXF 393 renal, with MOLT-4 leukemia, with UACC-62 melanoma and in the assay on HCC-2998 colon was above 100 µM throughout. The TGI in the assay on PC-3 prostate, with HCT-15 colon and in the assay on SK-MEL-28 melanoma was above 100 µM throughout.
For the compound `CCOC(=O)C(C)N1C(=O)c2ccccc2S1(=O)=O` (stereo not given), the TGI in the assay with HT29 colon, in the assay with RXF 393 renal, in the assay on MOLT-4 leukemia, in the assay with UACC-62 melanoma, in the assay with HCC-2998 colon and in the assay with HCT-15 colon was above 100 µM each time. The same compound displayed a TGI in the assay on SK-MEL-28 melanoma above 100 µM. The GI50 in the assay with RXF 393 renal is above 100 µM.
With `CCOC(=O)C1=C(C)N(C2OC(COC(=O)c3ccccc3)C(OC(=O)c3ccccc3)C2OC(=O)c2ccccc2)C(=S)NC1c1ccccc1` (stereo not given), the TGI was above 100 µM in the assay on HT29 colon; 93.2 µM with M14 melanoma; 80.6 µM with MOLT-4 leukemia; above 100 µM in the assay on UACC-62 melanoma; above 100 µM with HCC-2998 colon; above 100 µM in the assay with SK-MEL-28 melanoma.

Values taken from PubChem BioAssay (NCI).
